Laboratory results published in US20240217936A1, “5-BENZY[…] AND PREPARATION METHOD THEREFOR AND USE THEREOF” (WEST CHINA HOSPITAL, SICHUAN UNIVERSITY, priority 2021, published 2024).
Where a name gives a salt, the structure may show the parent alone.

What was measured:
[1] = system: Male SD rats; assay: Sedative and hypnotic effects after oral administration (gavage, righting reflex); assay type: in vivo, rat; parameters: key to Onset time / Duration: —: Disappearance of righting reflex was not observed; details: for Onset time / Duration: gavage, 0.16 μmoL/kg; for Onset time: disappearance of righting reflex; for Duration: until recovery of righting reflex
Procedure: Each test drug was administered by gavage, at a dosage of 0.16 μmoL/kg for each drug. After gavage, the disappearance of the righting reflex was used as a sign of the hypnotic effect induced by the drug, and the recovery of the righting reflex was used as a sign of drug failure. The onset time and duration of the drug were observed.

[2] = system: Male SD rats; assay: Blood pressure change after tail vein injection (mean arterial pressure); details: dosage 2× ED50, injection within 15 seconds, 60 min recording, rats under isoflurane
Procedure: Male SD rats weighing 250-300 g were randomly divided into groups, with 10 rats in each group. General anesthesia was maintained by inhaling isoflurane. By intubating via femoral artery, blood pressure was monitored using the BL-420N biological signal collection and analysis system. minutes after blood pressure stabilization, the baseline mean arterial pressure (MAP0) was measured. Subsequently, the physiological saline solution of each test drug was injected via the tail vein (the dosage of each drug was the same as that in Experiment example 2, with a unified injection […] volume of 1 mL). […] All prodrug molecules were injected within 15 seconds. After injection of each drug, the change in blood pressure was continuously recorded for 60 min. […] The difference MAPΔ+ between the baseline mean arterial pressure (MAP0) and the highest mean arterial pressure (MAPmax) during the 60 min measurement time was calculated; the difference MAPΔ− between the baseline mean arterial pressure (MAP0) and the lowest mean arterial pressure (MAPmin) during the 60 min measurement time was also obtained; both of the difference values were used to calculate the maximum increase rate of mean arterial pressure +Δ%=MAPΔ+/MAP0*100% and the maximum decrease rate of mean arterial pressure −Δ%=MAPΔ−/MAP0*100%, respectively. The maximum increase rate of mean arterial pressure +Δ% and the maximum decrease rate −Δ% reflect the degree of blood pressure change that the body experienced after administration. The larger the value, the greater the blood pressure change that the body experienced.

[3] = Degradation of prodrug in rat plasma (release of dexmedetomidine, HPLC); assay type: in vitro ADME; details: 37° C.
Procedure: The test prodrug was formulated as a 1 mg/mL of physiological saline solution, and then 100 μL of the prodrug solution was added to 900 μL of rat plasma. The test solution was vortexed for 30 s before incubation at 37° C. 50 μL of drug-containing plasma was collected at 0.5 min, 1 min, 2 min, 3 min, 5 min, 10 min, 15 min, 20 min, 30 min, and 60 min, respectively, to which was immediately added 150 μL of acetonitrile to terminate the enzymatic reaction, followed by adding the solution of internal standard telmisartan in methanol (30 μL, 20 μg/mL). Then, the resultant solution was centrifuged at 20000 rpm and 4° C. for 10 min. 100 μL of the supernatant was injected for detection by HPLC, and the concentration of dexmedetomidine was determined by an internal standard method. The degradation rate of the prodrug was calculated based on the concentration of dexmedetomidine. The chromatographic conditions are: Swell XDB C18 column (150 mm×4.6 mm, 5 μm); column temperature 30° C.; using gradient elution (see Table 1), mobile phase A: methanol, mobile phase B: 0.1% trifluoroacetic acid in water, and mobile phase C: acetonitrile; detection wavelength: 220 nm; flow rate: 1.0 mL/min; injection volume: 30 μL; retention time: 4.7 minutes for dexmedetomidine and 6.7 minutes for internal standard telmisartan. The linear range of dexmedetomidine: 2.5-100 μg/mL. Instruments: Waters 2695 high-performance liquid chromatograph, Waters 2996 photodiode array detector.

[4] = system: Male SD rats; assay: Hypnotic effect after tail vein injection (loss of righting reflex); assay type: in vivo, rat; details: for ED50: Rattus norvegicus, 50% of the dose for the disappearance of righting reflex in rats, tail vein injection; for Onset time: tail vein injection of 2× ED50, loss of righting reflex; for Onset time / Duration: rats; for Duration: tail vein injection of 2× ED50, until recovery of righting reflex
Procedure: Male SD rats, weighing 250-300 g, were randomly divided into groups, with 10 rats in each group. […] The onset times and the duration of hypnosis were recorded.

Row | SMILES | Onset time [1] | Duration [1] | +Δ % (The maximum increase rate of blood pressure) [2] | −Δ % (The maximum decrease rate of blood pressure) [2] [%] | Degradation rate of prodrug % ([3]; 0.5 min) [%] | Degradation rate of prodrug % ([3]; 1 min) [%] | Degradation rate of prodrug % ([3]; 2 min) [%] | Degradation rate of prodrug % ([3]; 3 min) [%] | ED50 [4] [mg/kg] | Onset time [4] [min] | Duration [4] [min] | Degradation rate of prodrug % ([3]; 5 min) [%] | Degradation rate of prodrug % ([3]; 10 min) [%] | Degradation rate of prodrug % ([3]; 15 min) [%] | Degradation rate of prodrug % ([3]; 20 min) [%] | Degradation rate of prodrug % ([3]; 30 min) [%] | Degradation rate of prodrug % ([3]; 60 min) [%] | hypnotic effect by oral administration ([1]; equimolar doses, oral)
1 | CC(=O)OCn1cnc([C@@H](C)c2cccc(C)c2C)c1 [Compound 1-HCl] | 15 ± 6 min | 17 ± 8 min | *25 ± 12% | 43 ± 10 | 33 | 68 | 95 | 100 | 0.035 | 3.9 ± 1.5 | 42 ± 9 |  |  |  |  |  |  | 
2 | Cc1cccc([C@H](C)c2cn(C(=O)OCC(C)C)cn2)c1C [Compound 4-HCl] | 14 ± 8 min | 20 ± 13 min | 34 ± 14% | 38 ± 9 | 31 | 86 | 97 | 100 | 0.038 | 2.3 ± 0.9 | 44 ± 8 | 100 |  |  |  |  |  | 
3 | Cc1cccc([C@H](C)c2cn(COC(=O)OC(C)C)cn2)c1C [Compound 7] | 9 ± 4 min | 22 ± 8 min |  |  |  |  |  |  |  |  |  |  |  |  |  |  |  | 
4 | CCC(=O)OCn1cnc([C@@H](C)c2cccc(C)c2C)c1 [Compound 10] | 13 ± 6 min | 15 ± 7 min |  |  |  |  |  |  |  |  |  |  |  |  |  |  |  | 
5 | Cc1cccc([C@H](C)c2cn(COP(=O)(OC(C)(C)C)OC(C)(C)C)cn2)c1C [Compound 12, (S)-(4-(1-(2,3-dimethylphenyl)ethyl)-1H-imidazo-1-yl)methyl di-tert-butyl phosphate] | 16 ± 7 min | 11 ± 4 min |  |  |  |  |  |  |  |  |  |  |  |  |  |  |  | 
6 | COC(=O)OCn1cnc([C@@H](C)c2cccc(C)c2C)c1 [Compound 13] | 11 ± 5 min | 21 ± 9 min |  |  |  |  |  |  |  |  |  |  |  |  |  |  |  | 
7 | CC(=O)OC(C)n1cnc([C@@H](C)c2cccc(C)c2C)c1 (stereo partly shown) [Compound 17] | 23 ± 5 min | 9 ± 4 min |  |  |  |  |  |  |  |  |  |  |  |  |  |  |  | 
8 | COC(=O)COC(=O)OCn1cnc([C@@H](C)c2cccc(C)c2C)c1 [Compound 23] | 28 ± 5 min | 8 ± 2 min |  |  |  |  |  |  |  |  |  |  |  |  |  |  |  | 
9 | CCOC(=O)COC(=O)OCn1cnc([C@@H](C)c2cccc(C)c2C)c1 [Compound 24-HCl] |  |  | *27 ± 12% |  | 18 | 21 | 24 | 27 | 0.03 | 1.3 ± 0.4 | 47 ± 7 | 31 | 33 | 36 | 37 | 38 | 41 | 
10 | COC(=O)CCC(=O)OCn1cnc([C@@H](C)c2cccc(C)c2C)c1 [Compound 25-HCl] |  |  | 31 ± 14% | 37 ± 7 | 51 | 56 | 59 | 64 | 0.041 | 3.1 ± 0.9 | 63 ± 15 | 67 | 68 | 69 | 72 | 76 | 79 | 
11 | Cc1cccc([C@H](C)c2cn(COP(=O)(O)O)cn2)c1C [Compound 26] |  |  | *15 ± 8% | 36 ± 8 | 29 | 31 | 32 | 33 | 0.032 | 1.7 ± 0.3 | 46 ± 5 | 34 | 35 | 37 | 38 | 43 | 56 | 
12 | CCOC(=O)CCC(=O)OCn1cnc([C@@H](C)c2cccc(C)c2C)c1 [Compound 27-HCl] |  |  | *25 ± 13% | 41 ± 9 | 52 | 58 | 66 |  | 0.019 | 1.4 ± 0.5 | 52 ± 9 | 78 | 86 | 97 | 100 |  |  | 
13 | Cc1cccc([C@H](C)c2c[nH]cn2)c1C.Cl [Dexmedetomidine hydrochloride, reference compound] | — | — |  |  |  |  |  |  | 0.018 | 1.5 ± 0.5 | 53 ± 11 |  |  |  |  |  |  | could not produce a hypnotic effect
